Data as given in ChEMBL document CHEMBL6103629 (J Med Chem, 2025).

How the values were obtained:
[1] = tested on: LoVo; experiment: Antitumor activity against human LoVo cells xenografted in female Balb/c nude mouse assessed as tumor growth inhibition at 10 mg/kg QD, po measured every 3 days for 25 days relative to control; type: functional; conditions: 600 h, time 25 day, read-out: TGI
[2] = Permeability across apical to basolateral side in human Caco-2 cells at 0.1 to 10 uM incubated for 120 mins by LC-MS/MS analysis; type: ADME, cell-based; conditions: caco-2, 2 h, dose 0.1-10 µM
[3] = tested on: NCI-H1703; experiment: Antitumor activity against human NCI-H1703 cells xenografted in female Balb/c nude mouse assessed as tumor growth inhibition at 40 mg/kg QD, po administered as 3 days on and 4 days off schedule for 4 weeks relative to control; type: functional; conditions: NCI-H1703, 672 h, time 28 day, read-out: TGI
[4] = Induction of CYP1A2 mRNA expression in human primary hepatocyte isolated from RAS donor at 0.1 to 10 uM incubated for 72 hrs by real-time PCR analysis; type: ADME, cell-based; conditions: hepatocytes, dose 0.1-10 µM
[5] = Induction of CYP2B6 mRNA expression in human primary hepatocyte isolated from RAS donor at 0.1 to 10 uM incubated for 72 hrs by real-time PCR analysis; type: ADME, cell-based; conditions: hepatocytes, dose 0.1-10 µM
[6] = Toxicity in Beagle dogs assessed as effect on respiratory system at 5 to 20 mg/kg, po administrated as single dose upto 24 hrs; type: organism-based, Canis lupus familiaris; conditions: dog, in vivo, dose 5-20 mg/kg
[7] = Drug distribution in Sprague-Dawley rat stomach at 5 mg/kg, IG administrated as single dose measured after 0.5 hrs by LC-MS/MS analysis; type: ADME, organism-based; conditions: in vivo, po
[8] = Permeability across basolateral to apical side in human Caco-2 cells at 0.1 to 10 uM incubated for 120 mins by LC-MS/MS analysis; type: ADME, cell-based; conditions: caco-2, 2 h, dose 0.1-10 µM
[9] = Drug metabolism in Sprague-Dawley rat liver cells at 2 uM incubated upto 120 mins by LC-MS/MS analysis; type: ADME, cell-based; conditions: 2 h
[10] = biological target: CYP2B6 (Homo sapiens, UniProt P20813); experiment: Inhibition of recombinant human CYP2B6 assessed as residual activity at 1 uM in the presence of NADPH incubated for 60 mins by LC-MS/MS analysis relative to control; type: ADME; conditions: read-out: Activity
CYP2B6, sequence (P20813 whole entry): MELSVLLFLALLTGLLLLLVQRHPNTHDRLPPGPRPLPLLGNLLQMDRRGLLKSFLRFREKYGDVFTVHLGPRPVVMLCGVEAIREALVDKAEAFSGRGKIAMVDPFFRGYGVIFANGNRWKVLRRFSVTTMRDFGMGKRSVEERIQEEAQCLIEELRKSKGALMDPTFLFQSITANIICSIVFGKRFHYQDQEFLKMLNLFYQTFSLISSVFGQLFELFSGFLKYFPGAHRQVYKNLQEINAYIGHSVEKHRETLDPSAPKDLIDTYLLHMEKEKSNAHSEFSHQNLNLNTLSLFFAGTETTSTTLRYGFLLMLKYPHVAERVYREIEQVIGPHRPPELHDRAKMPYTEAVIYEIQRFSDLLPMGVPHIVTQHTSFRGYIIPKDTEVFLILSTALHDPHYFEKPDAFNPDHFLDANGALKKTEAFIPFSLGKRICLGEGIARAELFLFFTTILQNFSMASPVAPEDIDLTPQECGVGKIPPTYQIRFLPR

[11] = Induction of CYP1A2 mRNA expression in human primary hepatocyte isolated from YND donor at 0.1 to 10 uM incubated for 72 hrs by real-time PCR analysis; type: ADME, cell-based; conditions: hepatocytes, dose 0.1-10 µM
[12] = tested on: LoVo; experiment: Induction of apoptosis in human LoVo cells assessed as necrotic cells at 1 uM incubated for 24 hrs by Annexin-V-FITC-PI staining based flow cytometric analysis (reference value: 0.97 %); type: functional
[13] = Dissociation constant, pKa of compound; type: physicochemical
[14] = Toxicity in female CB17 SCID mouse xenografted with human JeKo-1 cells assessed as body weight at 40 mg/kg BID, po administered as 3 days on and 4 days off schedule for 24 days; type: organism-based; conditions: in vivo, 576 h, time 24 day
[15] = Plasma protein binding in Beagle dog at 1 uM incubated for 5 hrs in HTD dialysis in the presence of verapamil by LC-MS/MS analysis relative to control; type: ADME, cell-free, Canis lupus familiaris; conditions: read-out: PPB (converted)
[16] = Induction of CYP1A2 mRNA expression in human primary hepatocyte isolated from DZM donor at 0.1 to 10 uM incubated for 72 hrs by real-time PCR analysis; type: ADME, cell-based; conditions: hepatocytes, dose 0.1-10 µM
[17] = biological target: Cytochrome P450 2B6 (Homo sapiens, UniProt P20813); experiment: Inhibition of CYP2B6 in human liver microsomes in the presence of NADPH incubated for 60 mins by LC-MS/MS analysis; type: ADME, Microsome
Cytochrome P450 2B6, sequence (P20813 whole entry): as above

[18] = tested on: LoVo; experiment: Induction of apoptosis in human LoVo cells assessed as late apoptotic cells at 3 uM incubated for 24 hrs by Annexin-V-FITC-PI staining based flow cytometric analysis (reference value: 13.2 %); type: functional
[19] = biological target: Cytochrome P450 2D6 (Homo sapiens, UniProt P10635); experiment: Inhibition of CYP2D6 in human liver microsomes in the presence of NADPH incubated for 60 mins by LC-MS/MS analysis; type: ADME, Microsome
Cytochrome P450 2D6, sequence (P10635 whole entry): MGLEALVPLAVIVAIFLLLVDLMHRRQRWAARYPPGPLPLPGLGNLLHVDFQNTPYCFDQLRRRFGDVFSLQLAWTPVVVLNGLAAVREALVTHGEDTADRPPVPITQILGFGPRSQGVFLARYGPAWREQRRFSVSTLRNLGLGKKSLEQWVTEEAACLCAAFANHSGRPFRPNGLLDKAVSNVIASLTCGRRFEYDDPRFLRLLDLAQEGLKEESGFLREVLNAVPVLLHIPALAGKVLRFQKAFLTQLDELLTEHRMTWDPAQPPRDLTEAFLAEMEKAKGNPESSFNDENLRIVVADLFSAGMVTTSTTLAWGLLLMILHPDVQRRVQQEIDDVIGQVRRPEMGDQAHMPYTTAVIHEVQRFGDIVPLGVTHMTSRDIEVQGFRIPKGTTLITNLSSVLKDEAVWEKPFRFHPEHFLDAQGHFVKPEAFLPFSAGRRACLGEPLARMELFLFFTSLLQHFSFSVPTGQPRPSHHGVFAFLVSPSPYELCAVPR

[20] = Stability in Beagle dog plasma assessed as half life by LC-MS/MS analysis; type: ADME, cell-free, Canis lupus familiaris
[21] = Drug metabolism in Sprague-Dawley rat plasma by LC-MS/MS analysis; type: ADME, cell-free; conditions: 5 h, 1 µM
[22] = tested on: LoVo; experiment: Induction of apoptosis in human LoVo cells assessed as necrotic cells at 3 uM incubated for 24 hrs by Annexin-V-FITC-PI staining based flow cytometric analysis (reference value: 0.97 %); type: functional
[23] = Toxicity in male Balb/c nude mouse xenografted with human 22Rv1 cells assessed as body weight at 40 mg/kg QD, po measured every 3 days for 25 days at 10 to 60 mg/kg QD, po measured every 3 days for 18 days; type: organism-based; conditions: in vivo, 432 h, time 18 day
[24] = biological target: Serine/threonine-protein kinase mTOR (Homo sapiens, UniProt P42345); experiment: Inhibition of mTOR (unknown origin) preincubated for 15 mins and measured after 60 mins by Z-LYTE screening
[25] = biological target: Cytochrome P450 2C8 (Homo sapiens, UniProt P10632); experiment: Inhibition of CYP2C8 in human liver microsomes in the presence of NADPH incubated for 60 mins by LC-MS/MS analysis; type: ADME, Microsome
Cytochrome P450 2C8, sequence (P10632 whole entry): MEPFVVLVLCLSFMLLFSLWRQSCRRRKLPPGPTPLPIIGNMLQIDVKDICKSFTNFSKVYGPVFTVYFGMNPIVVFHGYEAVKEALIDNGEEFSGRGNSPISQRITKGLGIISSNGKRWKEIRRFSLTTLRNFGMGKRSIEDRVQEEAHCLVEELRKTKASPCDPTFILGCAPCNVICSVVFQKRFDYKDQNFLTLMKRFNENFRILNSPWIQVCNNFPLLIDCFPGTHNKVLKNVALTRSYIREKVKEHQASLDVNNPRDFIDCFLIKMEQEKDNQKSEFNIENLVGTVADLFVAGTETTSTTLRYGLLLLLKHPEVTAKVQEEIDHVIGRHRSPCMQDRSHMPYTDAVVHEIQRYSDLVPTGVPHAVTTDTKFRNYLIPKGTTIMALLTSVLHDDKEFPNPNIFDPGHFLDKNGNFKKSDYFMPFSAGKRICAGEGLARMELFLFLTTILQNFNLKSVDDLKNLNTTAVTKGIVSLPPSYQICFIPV

[26] = tested on: Hepatocyte; experiment: Cytotoxicity against human primary hepatocytes isolated from RAS donor at 0.1 to 10 uM incubated for 72 hrs by cytotox-glo assay; type: toxicity, cell-based; conditions: dose 0.1-10 µM
[27] = Toxicity in female Balb/c nude mouse xenografted with human LoVo cells assessed as body weight at 40 mg/kg QD, po measured every 3 days for 25 days; type: organism-based; conditions: in vivo, 600 h, time 25 day
[28] = Drug metabolism in human liver cells at 2 uM incubated upto 120 mins by LC-MS/MS analysis; type: ADME, cell-based; conditions: 2 h
[29] = Plasma protein binding in human at 1 uM incubated for 5 hrs in HTD dialysis in the presence of verapamil by LC-MS/MS analysis relative to control; type: ADME, cell-free; conditions: read-out: PPB (converted)
[30] = tested on: LoVo; experiment: Antitumor activity against human LoVo cells xenografted in female Balb/c nude mouse assessed as tumor growth inhibition at 20 mg/kg QD, po measured every 3 days for 25 days relative to control; type: functional; conditions: 600 h, time 25 day, read-out: TGI
[31] = biological target: CYP2C9 (Homo sapiens, UniProt P11712); experiment: Inhibition of recombinant human CYP2C9 assessed as residual activity at 1 uM in the presence of NADPH incubated for 60 mins by LC-MS/MS analysis relative to control; type: ADME; conditions: read-out: Activity
CYP2C9, sequence (P11712 whole entry): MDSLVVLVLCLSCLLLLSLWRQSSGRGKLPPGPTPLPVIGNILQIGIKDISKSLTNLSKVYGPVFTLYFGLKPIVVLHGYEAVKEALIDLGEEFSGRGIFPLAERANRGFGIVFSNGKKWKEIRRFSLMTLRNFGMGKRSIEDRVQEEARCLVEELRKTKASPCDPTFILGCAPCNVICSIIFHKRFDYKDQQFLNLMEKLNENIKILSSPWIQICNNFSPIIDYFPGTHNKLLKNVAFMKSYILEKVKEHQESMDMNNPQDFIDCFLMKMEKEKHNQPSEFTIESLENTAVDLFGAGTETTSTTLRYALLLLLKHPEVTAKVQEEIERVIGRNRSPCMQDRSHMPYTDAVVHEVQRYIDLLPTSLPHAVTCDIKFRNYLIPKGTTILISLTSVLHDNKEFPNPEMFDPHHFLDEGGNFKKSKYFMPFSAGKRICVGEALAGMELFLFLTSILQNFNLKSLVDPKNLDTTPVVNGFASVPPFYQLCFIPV

[32] = Drug metabolism in CD-1 mouse plasma by LC-MS/MS analysis; type: ADME, cell-free; conditions: 5 h, 1 µM
[33] = Drug accumulation in female Beagle dogs at 5 mg/kg, IG measured for 7 days by LC-MS/MS analysis; type: ADME, organism-based, Canis lupus familiaris; conditions: dog, in vivo, po, 168 h, time 7 day
[34] = biological target: Cytochrome P450 3A4 (Homo sapiens, UniProt P08684); experiment: Inhibition of CYP3A4 in human liver microsomes using testosterone as substrate and in presence of NADPH incubated for 60 mins by LC-MS/MS analysis; type: ADME, Microsome
Cytochrome P450 3A4, sequence (P08684 whole entry): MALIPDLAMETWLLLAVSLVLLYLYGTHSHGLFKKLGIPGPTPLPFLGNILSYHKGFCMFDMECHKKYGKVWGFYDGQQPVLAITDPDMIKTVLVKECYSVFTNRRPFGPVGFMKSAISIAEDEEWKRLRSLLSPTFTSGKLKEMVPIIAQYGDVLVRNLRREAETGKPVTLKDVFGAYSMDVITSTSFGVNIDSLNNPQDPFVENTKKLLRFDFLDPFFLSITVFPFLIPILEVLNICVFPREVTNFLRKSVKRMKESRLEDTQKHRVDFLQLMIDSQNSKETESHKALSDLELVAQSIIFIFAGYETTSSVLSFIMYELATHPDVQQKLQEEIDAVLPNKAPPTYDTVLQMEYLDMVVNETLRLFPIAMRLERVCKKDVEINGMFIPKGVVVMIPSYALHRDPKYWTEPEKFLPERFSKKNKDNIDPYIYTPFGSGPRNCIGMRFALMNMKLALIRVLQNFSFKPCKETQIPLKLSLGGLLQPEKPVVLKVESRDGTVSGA

[35] = Drug accumulation in male Beagle dogs at 5 mg/kg, IG measured for 7 days by LC-MS/MS analysis; type: ADME, organism-based, Canis lupus familiaris; conditions: dog, in vivo, po, 168 h, time 7 day
[36] = Drug metabolism in Beagle dogs liver cells at 2 uM incubated upto 120 mins by LC-MS/MS analysis; type: ADME, cell-based, Canis lupus familiaris; conditions: dog, 2 h

permeability [2]: Permeable
Activity [4]: Not_active
Activity [5]: Active
Drug uptake [7]: Active
permeability [8]: Permeable
Drug metabolism [9]: metabolite_detected
activity at 1 h, 1 µM [10]: 94.1%
Activity [11]: Not_active
pKa [13]: 4.25
fraction unbound at 5 h, 1 µM [15]: 0.256
Activity [16]: Not_active
IC50 [17]: > 100 µM
IC50 [19]: > 100 µM
half-life [20]: > 2 h
Drug metabolism [21]: metabolite_notdetected
IC50 [24]: 1.82 µM
IC50 [25]: 37.1 µM
Drug metabolism [28]: metabolite_detected
fraction unbound at 5 h, 1 µM [29]: 0.075
activity at 1 h, 1 µM [31]: 102%
Drug metabolism [32]: metabolite_notdetected
Drug uptake [33]: Active
IC50 [34]: 41.5 µM
Drug uptake [35]: Active
Drug metabolism [36]: metabolite_detected
SMILES: Cc1nn(-c2cccnc2)c(C)c1-c1cc(N2CC3CCC(C2)O3)nc2c(-c3ccn[nH]3)cnn12.O=C(O)/C=C/C(=O)O
inhibition in vivo at 10 mg/kg [1]: 13.9%
inhibition in vivo at 40 mg/kg [3]: 36.2%
Activity [6]: Non-toxic
Activity [12]: 0.8%
Activity [14]: Non-toxic
Activity [18]: 19.8%
Activity [22]: 2.65%
Activity [23]: Non-toxic
Activity [26]: Non-toxic
Activity [27]: Non-toxic
inhibition in vivo at 20 mg/kg [30]: 26.9%
